Laboratory results as given in article PMC10526199 (Biomolecules, 2023).

What was measured:
3xTg-AD mice [1] = test: Behavior tests (NOR and battery) in 3xTg-AD mice; type: in vivo, mouse; details: 0.01 mg/kg oral gavage 5 days a week
Excerpt: (§1) Male and female triple-transgenic AD (3xTg-AD) mice from the NIH-supported Mutant Mouse Resource & Research Centers (MMRRC) were purchased through the Jackson Laboratory (Farmington, CT, USA). Mice were housed four animals per cage in an AAALAC-accredited animal facility at the University of Miami Miller School of Medicine. All experiments were approved by the University of Miami Miller School of Medicine Institutional Animal Care and Use Committee (IACUC).
(§2) Formulations were made fresh weekly and sonicated briefly to mix. Beginning at 4 months of age (prior to disease development), mice were treated 5 days a week for 9 months.
A series of behavior tests intended to test motor coordination, anxiety, spatial learning, and reference memory was performed as previously performed by our lab. Motor coordination was assessed at 11 months of age using rotarod. Anxiety was assessed by open field at 7 months and elevated O-maze at 11 months. […]
1. […] Motor coordination was assessed by the latency to fall on the very first trial between treatment groups. […]
3. […] Arm entries were recorded and percent of spontaneous alternations was calculated. […]
4. […] Distance traveled, velocity of movement within the arena, and time in center versus periphery were recorded and analyzed. Anxiety- related behavior is assessed by the duration spent in the center of the field versus the periphery. […]

3xTg-AD mice [2] = test: Intraperitoneal glucose tolerance testing (GTT) in 3xTg-AD mice; type: in vivo, mouse; details: 10 months of age, 0.01 mg/kg oral gavage 5 days a week
Excerpt: as §1, §2
(§3) Mice underwent intraperitoneal (i.p.) glucose tolerance testing (GTT) at 10 months of age, and insulin tolerance testing (ITT) at 12 months of age. For both tests, mice were food fasted 6 h prior to testing, with access to water. For GTT, mice were injected with 1.5 g/kg body weight glucose diluted in saline. For ITT, mice were injected with 0.8 U/kg body weight insulin. For both tests, blood glucose was measured from a tail prick by a glucometer (Bayer; Leverkusen, Germany) at 0, 15, 30, 60, 90, and 120 min.

3xTg-AD mice [3] = test: Insulin tolerance testing (ITT) in 3xTg-AD mice; type: in vivo, mouse; details: 12 months, 0.01 mg/kg oral gavage 5 days a week
Excerpt: as §1, §2, §3

[4] = system: Human Aβ1–42, Aβ1–40, total tau, phosphorylated-tau Serine-396, phosphorylated-tau Threonine-181; test: ELISA for tau and Aβ species in brain tissue of 3xTg-AD mice; type: in vivo, mouse
Excerpt: as §1, §2
(§4) At 13 months of age, mice were anaesthetized with isoflurane and euthanized via cardiac puncture. The brain was extracted and quickly dissected on ice, and snap-frozen in liquid nitrogen. The samples were stored at −80 °C until processed. For each mouse, brain regions from one hemisphere were used for RNA extraction and qPCR and sections from the other hemisphere were used for protein extraction and ELISAs.
Protein lysates were prepared by sonicating tissue in M-PER Mammalian Protein Extraction Reagent (Thermo Fisher Scientific; Waltham, MA, USA) supplemented with protease and phosphatase inhibitor (Thermo Fisher Scientific). Total protein was quantified using Pierce BCA Protein Assay Kit (Thermo Fisher Scientific). Human Aβ1–42, Aβ1–40, total tau, phosphorylated-tau Serine-396, and phosphorylated-tau Threonine-181 were measured in brain tissue by enzyme-linked immunosorbent assay (ELISA; Invitrogen, Thermo Fisher Scientific), and measured using the EnVision® multimode plate reader (Perkin Elmer; Waltham, MA, USA).

[5] = system: differentially expressed genes; test: NanoString nCounter Mouse Neuropathology Panel and Ingenuity Pathway Analysis, ERC RNA of 3xTg-AD mice; type: in vivo; details: for DEGs decreased compared to vehicle / DEGs increased compared to vehicle / significant differentially expressed genes (DEG) compared to vehicle: ERC, 0.01 mg/kg oral gavage 9 months; for significant differentially expressed genes (DEG) compared to vehicle: Q value < 0.01; for most pathways incl. neuroinflammation signaling and amyloid processing pathway, vs vehicle: Ingenuity Pathway Analysis
Excerpt: as §1, §2, §4
The NanoString Technologies nCounter® Mouse Neuropathology Panel was used to assess ERC RNA. This panel screens expression of 770 genes specific for neurodegeneration. We also included a custom 30-gene spike-in code set to include specific genes of interest. Assays were performed using the NanoString protocols, and data were normalized in nSolver® analysis software v 2.0.
Heatmaps were created with Morpheus Software (accessed on 20 February 2022; software.broadinstitute.org/Morpheus). Ingenuity Pathway Analysis (Qiagen) was used to run comparison analyses of differentially regulated pathways between male and female animals.

Adam10, Slc2a1, Slc2a3 = test: RT-qPCR of AD- and glucose metabolism-related genes in brain of 3xTg-AD mice; type: in vivo, mouse; details: 0.01 mg/kg oral gavage 9 months
Excerpt: as §1, §2, §4
RNA was isolated from tissue using TRIzol® reagent (Life Technologies, Thermo Fisher Scientific) and a Qiagen RNeasy® Mini Kit (Qiagen; Hilden, Germany). RNA concentrations and quality were determined using NanoDrop 2000 UV-Vis Spectrophotometer (Thermo Fisher Scientific). cDNA was created using qScript cDNA Synthesis kit (Quantabio; Beverly, MA, USA). RT-qPCR was run using TaqMan 2-step RT-qPCR reagents (Thermo Fisher Scientific) on the QuantStudio Flex RT-qPCR system (Applied Biosystems, Thermo Fisher Scientific). Fold-change in gene expression relative to non-transduced controls were normalized. Results presented are based on fold-change using the 2^(−ΔΔCt) method.

HDAC1 = details: cited from earlier work
HDAC2 = details: cited from earlier work
HDAC3 = details: cited from earlier work
HDAC10 = details: cited from earlier work
[6] = cited from earlier work
[7] = system: histone H3K27 acetylation; details: 0.1 mg/kg, mouse model of immune thrombocytopenia; cited from earlier work
HDAC8 = details: cited from earlier work
[8] = PFC, 0.01 mg/kg oral gavage 5 days a week for 9 months
[9] = hippocampus, females, 0.01 mg/kg oral gavage 5 days a week for 9 months
[10] = hippocampus, males, 0.01 mg/kg oral gavage 5 days a week for 9 months

For Nc1cc(F)ccc1NC(=O)c1ccc(CNC(=O)/C=C/c2cccnc2)cc1 [chidamide], the “NOR: time exploring novel vs familiar object compared to vehicle” value (3xTg-AD mice [1]; 10-month-old males) was “longer time exploring the novel object”, the “overall behavior data (anxiety, learning, memory)” value (3xTg-AD mice [1]; males and females) was “do not reach the appropriate effect size to distinguish any meaningful results” and the “glucose tolerance vs vehicle” value (3xTg-AD mice [2]; females) was “trend towards improved glucose tolerance”. For the same compound, the “glucose tolerance vs vehicle” value (3xTg-AD mice [2]; males) was “significant improvement in glucose tolerance”, the “insulin tolerance vs vehicle” value (3xTg-AD mice [3]; females) was “No significant differences” and the “insulin tolerance vs vehicle” value (3xTg-AD mice [3]; males) was “No significant differences”. For the same compound, the “tau phosphorylated at serine 396 (S396) vs vehicle” value ([4]; PFC, females, 0.01 mg/kg oral gavage 5 days a week for 9 months) was “no significant difference”, the “tau phosphorylated at serine 396 (S396) vs vehicle” value ([4]; PFC, males, 0.01 mg/kg oral gavage 5 days a week for 9 months) was “significantly greater” and the “Aβ-40 levels, treated females compared to treated males” value [4, 8] was “greater in chidamide-treated females compared to males”. For the same compound, the “PFC Aβ-42 change with treatment” value [4, 8] was “a corresponding decrease in PFC Aβ-42 was not observed”, the “progression of AD-like pathology” value ([4]; chronic, low-dose 0.01 mg/kg, 3xTg-AD mouse) was “does not appear to significantly alter progression of AD-like pathology” and the “tau phosphorylated at threonine 181 (T181) vs vehicle” value [4, 9] was “trend for decreased levels”. For the same compound, the “total tau levels vs vehicle” value [4, 9] was “did not show a significant difference”, the “tau phosphorylated at threonine 181 (T181) vs vehicle” value [4, 10] was “trend for decreased levels” and the “total tau levels vs vehicle” value [4, 10] was “significantly lower levels of total tau”. For the same compound, the “Aβ-42 levels, treated females compared to treated males” value ([4]; hippocampus, 0.01 mg/kg oral gavage 5 days a week for 9 months) was “significantly greater in the hippocampus of female- compared to male-treated mice”, the “DEGs decreased compared to vehicle” value ([5]; females) was 6 and the “DEGs increased compared to vehicle” value ([5]; females) was 11. The “significant differentially expressed genes (DEG) compared to vehicle” value ([5]; females) was 17, the “most pathways incl. neuroinflammation signaling and amyloid processing pathway, vs vehicle” value ([5]; females) was “downregulated” and the “DEGs decreased compared to vehicle” value ([5]; males) was 41. For the same compound, the “DEGs increased compared to vehicle” value ([5]; males) was 83, the “significant differentially expressed genes (DEG) compared to vehicle” value ([5]; males) was 124 and the “most pathways incl. neuroinflammation signaling and amyloid processing pathway, vs vehicle” value ([5]; males) was “upregulated”. For the same compound, the “Adam10 expression vs vehicle” value (Adam10, Slc2a1, Slc2a3; PFC, females) was “significantly greater”, the “Adam10 expression vs vehicle” value (Adam10, Slc2a1, Slc2a3; PFC, males) was “trend for increase” and the “Adam10 expression vs vehicle” value (Adam10, Slc2a1, Slc2a3; hippocampus) was “no difference was observed”. For the same compound, the “Slc2a1 (GLUT1) expression vs vehicle” value (Adam10, Slc2a1, Slc2a3; males, hippocampus) was “trend for an increase”, the “Slc2a3 (GLUT3) expression vs vehicle” value (Adam10, Slc2a1, Slc2a3; males, hippocampus) was “significant increase” and the “inhibition of HDAC1” value (HDAC1) was “low nanomolar range”. For the same compound, the “inhibition of HDAC2” value (HDAC2) was “low nanomolar range”, the “inhibition of HDAC3” value (HDAC3) was “low nanomolar range” and the “inhibition of class IIB HDAC10” value (HDAC10) was “low nanomolar range”. For the same compound, the “blood–brain barrier crossing” value [6] was “crosses the blood–brain barrier” and the “histone H3K27 acetylation” value [7] was “modulation of histone H3K27 acetylation occurred at this low dose”.
In the case of CC(=O)Nc1ccc(C(=O)Nc2ccccc2N)cc1 [Tacedinaline], the IC50 (HDAC1) is given as […], the IC50 (HDAC2) is given as 900 nM and the IC50 (HDAC3) is given as 1200 nM. For the same compound, the “inhibition of HDAC8” value (HDAC8) was “not reported to inhibit HDAC8”.
